According to patent publication US12280029B2, “Methods of treatment of inflammation related conditions using pluripotent anti-inflammatory and metabolic modulators” (INSTITUT PASTEUR DE MONTEVIDEO, priority 2016, dated 2025):

Tests used:
[1] = tested on: NF-κB/p65 in THP-1 macrophages; assay: LPS-induced NF-κB/p65 subcellular localization, immunofluorescence and epifluorescence microscopy; assay type: cell-based, human
Source text: Nuclear factor kappa B (NF-κB) represents a family of pro-inflammatory transcription factors, present in all eukaryotic cells, which regulate inducible expression of wide ranging genes involved in immune responses and cell-cycle regulation. Activation of NF-κB is accompanied by nuclear translocation of NF-κB. […] Specifically, FIG. 3 illustrates immunofluorescence and epifluorescence microscopy analysis showing the effect of SANA on LPS-induced NF-κB/p65 subcellular localization in THP-1 macrophages.

[2] = tested on: Il-1b secretion into the peritoneum; assay: LPS-induced Il-1b secretion into the peritoneum in vivo
HFD-induced obese mice = assay: Insulin resistance in HFD-induced obese mice (glucose tolerance test); assay type: in vivo; details: 100 mg/kg gavage every day during four weeks
Procedure: Mice under RFD for up to 7 months (mean weight around 40 gr.) were treated with SANA (100 mg/kg; gavage) or phosphate buffer (control) every day during four weeks. The glucose tolerance test were run as per well-known standard procedures.

GAPDH = GAPDH (Homo sapiens, UniProt P04406); assay: GAPDH activity; assay type: biochemical
Chain of GAPDH (P04406 whole entry, species assumed): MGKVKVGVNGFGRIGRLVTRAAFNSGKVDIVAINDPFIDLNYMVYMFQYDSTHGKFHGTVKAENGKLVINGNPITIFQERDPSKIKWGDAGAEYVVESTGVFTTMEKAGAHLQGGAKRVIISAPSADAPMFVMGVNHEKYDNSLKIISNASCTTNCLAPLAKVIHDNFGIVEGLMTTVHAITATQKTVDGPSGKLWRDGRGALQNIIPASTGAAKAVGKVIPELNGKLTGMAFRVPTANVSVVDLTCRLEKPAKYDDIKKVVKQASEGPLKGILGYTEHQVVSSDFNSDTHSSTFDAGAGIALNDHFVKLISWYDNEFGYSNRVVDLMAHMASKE

[3] = tested on: Nrf2/Keap1-dependent gene expression in Hep G2 cells; assay: Phase two enzymes Nrf2/Keap1-dependent gene expression (qPCR); assay type: cell-based; details: Hep G2, five hours, SANA 0.1 mM, Salicylic Acid 0.2. and 5 mM
Procedure: FIGS. 6 and 7 show induction of phase two enzymes Nrf2/Keap1-dependent gene expression by SANA but not by SA. Hep G2 cells were treated with SANA (0.1 mM) or Salicylic Acid (0.2. and 5 mM) for five hours. mRNA was extracted from the cells and was measured HO-1, GCLM and NQO1 gene expression by qPCR.

[4] = tested on: NF-kB-dependent gene expression in THP-1 cells differentiated into macrophages; assay: NF-kB-dependent gene expression in human macrophages (qPCR); assay type: cell-based; details: 100 and 200 uM for 2 hours, then LPS (3 hours)
Procedure: THP-1 cells were differentiated into macrophages. Cells were then treated with SANA (100 and 200 uM) or Salicylic acid (SA: 100 and 200 uM) for 2 hours. Cells were then stimulated with LPS (1 mg/mL, 3 hours) mRNA was extracted and IL-6, TNF-a and MCP-1 fold change gene expression over control were quantified by qPCR.

[5] = Adduct formation of SANA with glutathione, followed spectrophotometrically (UV-visible); assay type: physicochemical; details: pH 7.4, GSH 1 mM, scans every min up to 15 min
Procedure: (§1) UV-visible spectra was acquired by a Varian Cary 50 Bio. Scans were taken every min up to 15 min.

[6] = Stopped-flow kinetic measurement of the reaction with BME; assay type: physicochemical; details: 25 μM, BME 0.54-2.73 mM, absorbance at 260 nm, 25° C., triplicate, slope of pseudo first order constants vs BME
Procedure: In FIG. 2, it is shown that the reaction between SANA and BME was determined to be a second order rate constant. Stopped-flow kinetic measurements were performed using an Rx 2000 stopped flow analyzer (Applied Photophysics). Mixtures of 1.50 μL […] (25 μM) and solutions of BME at 0.54 mM, 1.09 mM, 1.64 mM, 2.18 mM, and 2.73 mM concentrations.
The reaction was monitored by following the absorbance at 260 nm and plots were fitted to a simple exponential decay function using Originlab software (version 8.0.). The observed pseudo first order constant at each concentration of BME was extracted from the equation and plotted against the concentration of BME. The second rate constant of the reaction is derived from the slope of the curve and was 182±6 M^−1s^−1. All experiments were carried out at 25° C. by triplicate.

[7] = tested on: inflammasome in THP-1 cells differentiated into macrophages; assay: Inflammasome inhibition in THP-1 macrophages (LPS + ATP, IL-1b ELISA); assay type: cell-based, human; details: for inhibition of the inflammasome (IL-1b secretion), applied with the second signal: LPS (250 ng/mL, 3 hs.), then together with ATP (5 mM, 45 minutes), SANA 0.05, 0.125 and 0.25 mM, Salicylic acid 0.25 mM; for inhibition of the inflammasome (IL-1b secretion), applied with the first signal: together with LPS (250 ng/mL, 3 hs.), then ATP (5 mM, 45 minutes), SANA 0.05, 0.125 and 0.25, Salicylic acid 0.2.5 mM
Procedure: In FIGS. 8 and 9 show the inhibition of inflammasome in THP-1 cells differentiated into macrophages (PMA 200 nM, 48 hs.) by SAMA but not by SA when applied together with the first (FIG. 8) or the second (FIG. 9) signal. In FIG. 8 cells were treated with Salicylic acid (0.2.5 mM) or SANA (0.05; 0.125 and 0.25) together with LPS stimulation. The cells were stimulated with LPS (250 ng/mL, 3 hs.) and then with ATP (5 mM, 45 minutes). Supernatant was collected and IL-1b measured by ELISA. Cell viability was assessed by MTT assay. […] In FIG. 9 THP-1 cells were differentiated into macrophages with PMA (200 nM, 48 hs.). Cells were stimulated with LPS (250 ng/mL, 3 hs.) and then with ATP (5 mM, 45 minutes), Together with ATP treatment, cells were then treated with […] (10 uM), Salicylic acid (0.25 mM) or SANA (0.05; 0.125 and 0.25 mM). Supernatant was collected and IL-1b secretion was measured by ELISA. Cell viability was assessed by the MTT assay.

[8] = tested on: skin allograft, C57BL/6 female mice grafted with skin of C57BL/6 male mice; assay: Skin allograft rejection in mice; assay type: in vivo; details: from one day before until 15 days after transplantation
Procedure: C57BL/6 female mice were grafted with skin from the tails of C57BL/6 male mice. The skin graft is a small square (1 cm^2) and it was implanted onto the left subscapular region of the female mice. From one day before the transplantation until 15 days after it, the mice were treated daily with SANA. (1.00 mg/kg, by oral gavage; SANA group) or vehicle (Control group). The vehicle used was a solution of Carboxy-Methyl-cellulose 0.5% m/v and Tween 80 0.5% v/v. At the end of the 15th day of administration, allografts were checked every 48/72 hours to assess the condition of the grafted skin. Rejection was diagnosed clinically when the allograft lost more than 50% of its size and/or more than 10% of allograft was necrotic. […] The study followed the protocol described above for FIG. 1, but further included a Salicylate group. C57BL/6 female mice were grafted with skin from the tails of C57BL/6 male mice. The skin graft is a small square (1 cm^2) and it was implanted onto the left subscapular region of the female mice. From one day before the transplantation until 15 days after it, the mice were treated daily with Salicylate (100 mg/kg, by oral gavage; Salicylate group), SANA (100 mg/kg, by oral gavage; SANA group) or vehicle (Control group). The vehicle used was a solution of Carboxy-Methyl-cellulose 0.5% m/v and Tween 80 0.5% v/v. […]

[9] = Adduct formation of SANA with β-mercaptoethanol, followed spectrophotometrically (UV-visible); assay type: physicochemical; details: pH 7.4, BME 1 mM, scans every min up to 15 min
Procedure: as §1

O=C(O)c1cc(/C=C/[N+](=O)[O-])ccc1O [SANA, 2-hydroxy-5-(2-nitroethenyl)benzoic acid]
LPS-induced NF-κB/p65 nuclear translocation ([1]; 0.1 mM, 2 hs before activation with LPS (1 ug/mL)): lack of nuclear translocation of NF-κB | potency relative to salicylic acid on NF-κB/p65 localization ([1]; SANA 0.1 mM vs salicylic acid 1 mM): significantly more potent than salicylic acid | LPS-induced Il-1b secretion into the peritoneum [2]: decreases | insulin resistance (glucose tolerance test) (HFD-induced obese mice): reverses insulin resistance | inhibition of GAPDH activity (GAPDH): does not inhibit GAPDH activity | induction of Nrf2/Keap1-dependent gene expression (HO-1, GCLM and NQO1) [3]: induction | inhibition of NF-kB-dependent gene expression (IL-6, TNF-a and MCP-1 mRNA fold change over control) [4]: inhibition of NF-kB-dependent gene expression | adduct formation with GSH (increase of absorption at 360 nm) [5]: adduct formation | second rate constant of the reaction with BME [6]: 182 ± 6 M⁻¹ s⁻¹ | inhibition of the inflammasome (IL-1b secretion), applied with the second signal [7]: potent inhibitor of the inflammasome | inhibition of the inflammasome (IL-1b secretion), applied with the first signal [7]: potent inhibitor of the inflammasome | survival of grafted skin vs control group ([8]; 1.00 mg/kg by oral gavage daily): prolonged survival of grafted skin as compared to a control group | skin allograft rejection vs salicylic acid ([8]; 100 mg/kg by oral gavage daily, Salicylate 100 mg/kg): significant reduction in skin allograft rejection compared to salicylic acid | adduct formation with BME (increase of absorption at 360 nm) [9]: adduct formation

O=C(O)c1ccccc1O [salicylic acid, reference compound]
LPS-induced NF-κB/p65 subcellular localization, effect compared with SANA 0.1 mM ([1]; 1 mM, LPS (1 ug/mL)): the same effect | induction of Nrf2/Keap1-dependent gene expression (HO-1, GCLM and NQO1) [3]: not by SA | inhibition of NF-kB-dependent gene expression (IL-6, TNF-a and MCP-1 mRNA fold change over control) [4]: not able to inhibit NF-kB dependent gene expression | inhibition of the inflammasome (IL-1b secretion), applied with the second signal [7]: cannot inhibit | inhibition of the inflammasome (IL-1b secretion), applied with the first signal [7]: cannot inhibit
